This note sets out measurements from patent publication US6365100B1, “Polymethylenepolyamine dipropionamides as environmentally safe inhibitors of the carbon corrosion of iron” (CECA, S.A., priority 1997, dated 2002).

Each structure is given as a SMILES string.

A short description of data set [1]: Carbonic corrosion-inhibitory efficiency by polarization resistance in CO2-saturated NACE-type solution. The following applies: 25° C., reading after 6 hours. How it is done: The experimental procedures intended to evaluate the corrosion-inhibitory efficiencies in carbon dioxide-saturated medium of the products used (A, B and C of Example 1) are described in this example. In order to simulate the corrosive medium, a solution of NACE type containing 50 g/l of NaCl and 0.25 mg/l of acetic acid, saturated by continuously bubbling CO2 through, depending on the case, and with inhibitor added or not added, is used.
The process is performed in a thermostatically regulated 600 ml Pyrex cell including, besides a gas inlet and outlet, three electrodes coupled to the cell by ground joints, namely a carbon-steel working electrode whose surface of contact with the corrosive solution is 1 cm^2, a saturated calomel reference electrode and a platinum counterelectrode having a very large surface of contact with the corrosive solution. 500 ml of the corrosive solution is placed in the cell, as control or with inhibitor added, after which the counterelectrode and the reference electrode are put in place. The solution is de-aerated by bubbling nitrogen through for one hour and is then saturated with CO2 by bubbling for at least one hour. In order to ensure good saturation with CO2, this gas is left to bubble through throughout the experiment.
The rate of corrosion Vcorr is measured by a method of measuring polarization resistance, which is known in the art. The corrosion rate reading is taken after stabilization for 6 hours.
The percentage of protection (%P) which allows the corrosion-inhibitory efficiency of the test product to be expressed is given by the relationship:
%P={(V^0corr−V^icorr)/V^0corr}×100
where V^0corr=rate of corrosion without inhibitor
V^icorr=rate of corrosion in the presence of a dose of inhibitor.
Table II collates the percentages of protection at room temperature (25° C.) as a function of the nature of the polymethylenepolyaminodipropionamides used and their dose.

The test system of data set [2] is Photobacterium phosphoreum. The data set can be described thus: Microtox bacterial ecotoxicity test (AFNOR NF T90-320). In kind it is cell-based. The note with it: lethal concentration to destroy 50% of the population in 15 minutes. How it is done:
(§1) The ecotoxicity measurements for various polymethylenepolyaminedipropionamides were carried out on a bacterium (Photobacterium phosphoreum) and on an alga (Skeletonema costatum) . The bacterial test is the Microtox test carried out according to AFNOR standard NF T90-320. The toxicities on Skeletonema costatum are determined according to the method ISO/DIS 10253. The Microtox toxicity is expressed as LC50 (lethal concentration in mg/l to destroy 50% of the population in 15 minutes). On Skeletonema costatum, the toxicity is expressed as EC50 (effective concentration in mg/l to inhibit the growth of 50% of the population in 72 hours).

The subject of data set [3] is Skeletonema costatum. Put plainly: Algal ecotoxicity test (ISO/DIS 10253). The class given is cell-based. The note with it: concentration to inhibit the growth of 50% of the population in 72 hours. How it is done:
as §1

On to `NC(=O)CCNCCNCCNCCC(N)=O` [Molecule A, H2NCO—(CH2)2—NH—[—(CH2)2 —NH—]2—(CH2)2—CONH2 (RN 92009-86-4)], for which the “PERCENTAGE OF PROTECTION (%)” value in data set [1] (dose 10 ppm) worked out at 24%; in data set [1] (dose 20 ppm), 44%; in data set [1] (dose 50 ppm) it was 48%; in data set [1] (dose 100 ppm), 53%. In addition, the “Toxicity Microtox (LC50)” value in data set [2] turned out to be 128 µg/mL.
For the compound `NC(=O)CCNCCNCCNCCNCCC(N)=O` [Molecule B, H2NCO—(CH2)2—NH—[—(CH2)2 —NH—]3—CH2)2—CONH2], the “PERCENTAGE OF PROTECTION (%)” value in data set [1] (dose 10 ppm) was 34%; in data set [1] (dose 20 ppm), 43%; in data set [1] (dose 50 ppm), 48%; in data set [1] (dose 100 ppm) it was 56%. Further, in data set [2], the “Toxicity Microtox (LC50)” value worked out at 104 µg/mL.
Take `NC(=O)CCNCCCNCCNCCCNCCC(N)=O` [Molecule C, H2NCO—(CH2)2—NH—(CH2)3—NH—(CH2)2—NH—(CH2)3—NH—(CH2)2—CONH2]: the “PERCENTAGE OF PROTECTION (%)” value is reported as 63% in data set [1] (dose 10 ppm), 70% in data set [1] (dose 20 ppm), 73% in data set [1] (dose 50 ppm) and 82% in data set [1] (dose 100 ppm). In addition, the “Toxicity Microtox (LC50)” value in data set [2] was 127 µg/mL. In addition, the “Toxicity Skeletonema costatum (EC50)” value in data set [3] lay within 5 to 10 µg/mL.
